In US10517910B2 (priority 2015, dated 2019):
Counter-ions that a name gives are not always drawn.

Test system: HuH-7 cells infected with JX-594 virus
Assay type: cell-based

How did the “JX-594 viral replication in vitro” value turn out when `COc1cccc2c1C(=O)c1c(O)c3c(c(O)c1C2=O)C[C@@](O)(C(=O)CO)C[C@@H]3O[C@H]1C[C@H](N)[C@H](O)[C@H](C)O1` [Adriamicyn, Doxorubicin hydrochloride] was run?
Its value is “decrease”.

And the viral output?
The viral output was “decreased”.
